Results taken from patent publication US8343983B2, “Substituted pyrazolo-pyrimidine compounds” (ArQule, Inc., priority 2009, dated 2013).
Read-outs that look alike come from different tables or passages of the source.

Tested on: cancer cells
Assay: MTS assay: inhibition of cell growth (formazan absorbance at 492 nm after 72 hours with test compound)
Assay type: cell-based
Conditions: inhibition class
Summary of the method: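 DMEM with 1% FBS; cells seeded at 3000/well and grown 18 h at 37 °C, then exposed to compound for 72 h and to MTS/PMS for 4 h. IC50 is the concentration giving a 50% absorbance drop; grades are % inhibition bands.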

[1] = Homo sapiens, DLD-1 cells, read-out: DLD-1, MTS 72 hours at 10 uM
[2] = Homo sapiens, KATO III cells, read-out: KATO III, MTS 72 hours at 10 uM
[3] = Homo sapiens, MDA-MB-231 cells, read-out: MDA-MB-231, MTS 72 hours at 10 uM
[4] = Homo sapiens, NCI-H1299 cells, read-out: NCI-H1299, MTS 72 hours at 10 uM
[5] = Homo sapiens, PC-3 cells, read-out: PC-3, MTS 72 hours at 10 uM
[6] = PACA-2 cells, read-out: PACA-2, MTS 72 hours at 10 uM

Measured: inhibition at 10 µM

c1ccc(CN2CCc3n[nH]c4nc(NCC5CCCCCC5)nc2c34)cc1 [Compound 67, 6-benzyl-N-(cycloheptylmethyl)-2,6,7,8-tetrahydro-1,2,3,5,6-pentaazaacenaphthylen-4-amine]
50 to 79%: [4] | [6]
< 50%: [1] | [2] | [3] | [5]

COc1cccc(CCNc2nc3c4c(n[nH]c4n2)CCN3Cc2ccccc2)c1 [Compound 36, 6-benzyl-N-[2-(3-methoxyphenyl)ethyl]-2,6,7,8-tetrahydro-1,2,3,5,6-pentaazaacenaphthylen-4-amine]
< 50%: [1] | [2] | [3] | [4] | [5] | [6]

Clc1ccccc1CNc1nc2c3c(n[nH]c3n1)CCN2c1ccccc1 [Compound 209, N-(2-chlorobenzyl)-6-phenyl-2,6,7,8-tetrahydro-1,2,3,5,6-pentaazaacenaphthylen-4-amine]
50 to 79%: [2]
< 50%: [1] | [3] | [4] | [5] | [6]

COc1cc(CCNc2nc3c4c(n[nH]c4n2)CCN3Cc2ccccc2)cc(OC)c1 [Compound 11, 6-benzyl-N-[2-(3,5-dimethoxyphenyl)ethyl]-2,6,7,8-tetrahydro-1,2,3,5,6-pentaazaacenaphthylen-4-amine]
< 50%: [3] | [5]
50 to 79%: [1] | [6]
> 79%: [2] | [4]

Cc1cccc2c(CCNc3nc4c5c(n[nH]c5n3)CCN4Cc3ccccc3)c[nH]c12 [Compound 73, 6-benzyl-N-[2-(7-methyl-1H-indol-3-yl)ethyl]-2,6,7,8-tetrahydro-1,2,3,5,6-pentaazaacenaphthylen-4-amine]
> 79%: [1] | [2] | [4]
50 to 79%: [3] | [6]
< 50%: [5]

CN1CCC(Nc2nc3c4c(n[nH]c4n2)CCN3c2ccccc2)CC1 [Compound 219, N-(1-methylpiperidin-4-yl)-6-phenyl-2,6,7,8-tetrahydro-1,2,3,5,6-pentaazaacenaphthylen-4-amine]
50 to 79%: [4]
> 79%: [1] | [2] | [3] | [5] | [6]

c1cc(N2CCN(c3nc4c5c(n[nH]c5n3)CCN4)CC2)ccn1 [Compound 122, 4-(4-pyridin-4-ylpiperazin-1-yl)-2,6,7,8-tetrahydro-1,2,3,5,6-pentaazaacenaphthylene]
< 50%: [1] | [2] | [3] | [4] | [5] | [6]

CC(C)Nc1nc2c3c(n[nH]c3n1)CCN2Cc1ccccc1 [Compound 60, 6-benzyl-N-isopropyl-2,6,7,8-tetrahydro-1,2,3,5,6-pentaazaacenaphthylen-4-amine]
< 50%: [1] | [2] | [3] | [4] | [5] | [6]

c1ccc(CN2CCc3n[nH]c4nc(N5CCN(c6ncccn6)CC5)nc2c34)cc1 [Compound 13, 6-benzyl-4-(4-pyrimidin-2-ylpiperazin-1-yl)-2,6,7,8-tetrahydro-1,2,3,5,6-pentaazaacenaphthylene]
< 50%: [1] | [2] | [3] | [4] | [5] | [6]

Fc1ccc(CCNc2nc3c4c(n[nH]c4n2)CCN3Cc2ccccc2)cc1 [Compound 46, 6-benzyl-N-[2-(4-fluorophenyl)ethyl]-2,6,7,8-tetrahydro-1,2,3,5,6-pentaazaacenaphthylen-4-amine]
< 50%: [5]
50 to 79%: [4]
> 79%: [1] | [2] | [3] | [6]

CN1CCC(Nc2nc3c4c(n[nH]c4n2)CCN3)CC1 [Compound 126, N-(1-methylpiperidin-4-yl)-2,6,7,8-tetrahydro-1,2,3,5,6-pentaazaacenaphthylen-4-amine]
< 50%: [1] | [2] | [3] | [4] | [5] | [6]

CC(C)CNC(=O)C1CN(Cc2ccccc2)c2nc(NCc3ccccc3)nc3[nH]nc1c23 (stereo not drawn) [Compound 236, 6-benzyl-4-(benzylamino)-N-(2-methylpropyl)-2,6,7,8-tetrahydro-1,2,3,5,6-pentaazaacenaphthylene-8-carboxamide]
< 50%: [1] | [2] | [3] | [4] | [5] | [6]

c1ccc(OCCNc2nc3c4c(n[nH]c4n2)CCN3c2ccccc2)cc1 [Compound 212, N-(4-phenoxyethyl)-6-phenyl-2,6,7,8-tetrahydro-1,2,3,5,6-pentaazaacenaphthylen-4-amine]
< 50%: [1] | [2] | [3] | [4] | [5] | [6]

c1ccc(CN2CCc3n[nH]c4nc(N5CCN(c6ccccc6)CC5)nc2c34)cc1 [Compound 44, 6-benzyl-4-(4-phenylpiperazin-1-yl)-2,6,7,8-tetrahydro-1,2,3,5,6-pentaazaacenaphthylene]
< 50%: [1] | [2] | [3] | [4] | [5] | [6]

C[C@@H]1CN(c2nc3c4c(n[nH]c4n2)CCN3Cc2ccccc2)C[C@H](C)O1 [Compound 96, 6-benzyl-4-[(2R,6S)-2,6-dimethylmorpholin-4-yl]-2,6,7,8-tetrahydro-1,2,3,5,6-pentaazaacenaphthylene]
< 50%: [1] | [4] | [6]
> 79%: [2] | [3] | [5]

O[C@H](CNc1nc2c3c(n[nH]c3n1)CCN2Cc1ccccc1)c1ccccc1 [Compound 72, (1S)-2-[(6-benzyl-2,6,7,8-tetrahydro-1,2,3,5,6-pentaazaacenaphthylen-4-yl)amino]-1-phenylethanol]
< 50%: [1] | [2] | [3] | [4] | [5] | [6]

O=C(NCc1ccc(Cl)cc1)C1CN(Cc2ccccc2)c2nc(NCc3ccccc3)nc3[nH]nc1c23 (stereo not drawn) [Compound 238, 6-benzyl-4-(benzylamino)-N-(4-chlorobenzyl)-2,6,7,8-tetrahydro-1,2,3,5,6-pentaazaacenaphthylene-8-carboxamide]
> 79%: [1] | [2] | [3] | [4] | [5]
50 to 79%: [6]
